Reference: ChEMBL document CHEMBL1201862, “PubChem BioAssay data set” (2004)
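In this assay, cells in 96-well plates receive the compound at five concentrations for 48 hours. Endpoints are linearly interpolated between the surrounding concentrations. GI50 = concentration required for 50% inhibition of growth.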 Active and inactive are the calls of the source. No stated cut-off is given here; in the data, active = GI50 up to about 1.1 µM and inactive = higher.

How the values were obtained:
Assay in all cases: NCI anticancer screen, dose series, 48 h
MCF7 = tested on: MCF7
KM12 = tested on: KM12
MOLT-4 = tested on: MOLT-4
COLO 205 = tested on: COLO 205
TK-10 = tested on: TK-10
Malme-3M = tested on: Malme-3M
SK-MEL-2 = tested on: SK-MEL-2
HOP-62 = tested on: HOP-62
OVCAR-3 = tested on: OVCAR-3
SK-MEL-5 = tested on: SK-MEL-5
Hs-578T = tested on: Hs-578T
SR = tested on: SR
SN12C = tested on: SN12C
MDA-N = tested on: MDA-N
BT-549 = tested on: BT-549
LOX IMVI = tested on: LOX IMVI
RPMI-8226 = tested on: RPMI-8226
HCC 2998 = tested on: HCC 2998
SNB-75 = tested on: SNB-75
RXF 393 = tested on: RXF 393

| SMILES | GI50 (MCF7) | GI50 (KM12) | GI50 (MOLT-4) | GI50 (COLO 205) | GI50 (TK-10) | GI50 (Malme-3M) | GI50 (SK-MEL-2) | GI50 (HOP-62) | GI50 (OVCAR-3) | GI50 (SK-MEL-5) | GI50 (Hs-578T) | GI50 (SR) | GI50 (SN12C) | GI50 (MDA-N) | GI50 (BT-549) | GI50 (LOX IMVI) | GI50 (RPMI-8226) | GI50 (HCC 2998) | GI50 (SNB-75) | GI50 (RXF 393) |
| --- | --- | --- | --- | --- | --- | --- | --- | --- | --- | --- | --- | --- | --- | --- | --- | --- | --- | --- | --- | --- |
| CC1OC2OC3C(OCC(O)C3O)OC(=O)[C@]34CCC(C)(C)CC3C3=CCC5[C@@]6(C)C[C@H](O)[C@H](OC7OC(CO)C(O)C(O)C7OC7OCC(OC(=O)CC(C)(O)CC(=O)OC1C(OC1OC(CO)C(O)C(O)C1O)C2O)C(O)C7O)[C@@](C)(CO)C6CC[C@@]5(C)[C@]3(C)CC4 (stereo partly drawn) | 12 µM (inactive) | 8.53 µM (inactive) | 10.3 µM (inactive) | 2.3 µM (inactive) | 10.8 µM (inactive) | 7.87 µM (inactive) | 4.18 µM (inactive) | 1.44 µM (inactive) | 9.77 µM (inactive) | 11.6 µM (inactive) | 14.6 µM (inactive) | 7 µM (inactive) | 12.2 µM (inactive) | 2.44 µM (inactive) | 9.27 µM (inactive) | 10.6 µM (inactive) | 10.6 µM (inactive) | 2.43 µM (inactive) | 11.5 µM (inactive) | – |
| O=[N+]([O-])c1cc(Br)cc2cc(Cl)cnc12 | 35.5 µM (inactive) | > 100 µM (inactive) | > 100 µM (inactive) | > 100 µM (inactive) | > 100 µM (inactive) | > 100 µM (inactive) | – | > 100 µM (inactive) | > 100 µM (inactive) | 81.8 µM (inactive) | 36.9 µM (inactive) | > 100 µM (inactive) | > 100 µM (inactive) | > 100 µM (inactive) | 72.4 µM (inactive) | 82.6 µM (inactive) | > 100 µM (inactive) | > 100 µM (inactive) | 31.8 µM (inactive) | 71.8 µM (inactive) |
| CCOC(=O)C1C(c2ccc(OC)cc2)c2c(nn(-c3ccccc3)c2O)CC1(O)OCC (stereo not drawn) | 30.1 µM (inactive) | 3.4 µM (inactive) | 2.45 µM (inactive) | 36.5 µM (inactive) | > 100 µM (inactive) | 75.5 µM (inactive) | > 100 µM (inactive) | > 100 µM (inactive) | > 100 µM (inactive) | 26.6 µM (inactive) | > 100 µM (inactive) | 2.17 µM (inactive) | > 100 µM (inactive) | 8.63 µM (inactive) | > 100 µM (inactive) | 0.597 µM (active) | 2.58 µM (inactive) | > 100 µM (inactive) | 82.4 µM (inactive) | – |
| C=C[C@H]1CN2CCc3c([nH]c4cc(O)ccc34)[C@@H]2C[C@@H]1C[C@H]1c2[nH]c3ccccc3c2CCN1C | 2.31 µM (inactive) | 3.66 µM (inactive) | 3.57 µM (inactive) | 1.77 µM (inactive) | 8.57 µM (inactive) | 13.8 µM (inactive) | 3.21 µM (inactive) | 4.45 µM (inactive) | 4.39 µM (inactive) | 1.73 µM (inactive) | 3.53 µM (inactive) | 2.67 µM (inactive) | 4.79 µM (inactive) | 1.78 µM (inactive) | 13.8 µM (inactive) | 4.41 µM (inactive) | – | 1.76 µM (inactive) | 2.11 µM (inactive) | – |
| CC(C)(C)c1cc(C2NCCO2)cc(C(C)(C)C)c1O (stereo not drawn) | 76.7 µM (inactive) | > 100 µM (inactive) | > 100 µM (inactive) | > 100 µM (inactive) | 37.1 µM (inactive) | > 100 µM (inactive) | 35.2 µM (inactive) | 30.1 µM (inactive) | > 100 µM (inactive) | > 100 µM (inactive) | 79.3 µM (inactive) | > 100 µM (inactive) | 89.7 µM (inactive) | > 100 µM (inactive) | > 100 µM (inactive) | > 100 µM (inactive) | > 100 µM (inactive) | – | 10.8 µM (inactive) | 14.7 µM (inactive) |
| O=C(CNc1ccccc1[N+](=O)[O-])Nn1cnc2ccc(S(=O)(=O)Nc3ccccc3[N+](=O)[O-])cc2c1=O | > 100 µM (inactive) | > 100 µM (inactive) | > 100 µM (inactive) | > 100 µM (inactive) | > 100 µM (inactive) | > 100 µM (inactive) | > 100 µM (inactive) | > 100 µM (inactive) | > 100 µM (inactive) | – | 22.1 µM (inactive) | > 100 µM (inactive) | > 100 µM (inactive) | > 100 µM (inactive) | > 100 µM (inactive) | > 100 µM (inactive) | > 100 µM (inactive) | > 100 µM (inactive) | > 100 µM (inactive) | – |
| FC(F)(F)c1ccc2nc3n(c2c1)C(c1c(Cl)cccc1Cl)SC3 (stereo not drawn) | 16.1 µM (inactive) | 14.6 µM (inactive) | 9.48 µM (inactive) | – | 18.3 µM (inactive) | 13.3 µM (inactive) | 18.2 µM (inactive) | 15.8 µM (inactive) | 15.6 µM (inactive) | – | 23.1 µM (inactive) | 4.24 µM (inactive) | 18.1 µM (inactive) | 11.7 µM (inactive) | 20.7 µM (inactive) | 27.6 µM (inactive) | – | 18.5 µM (inactive) | 13 µM (inactive) | 15.2 µM (inactive) |
| CCCCc1ccc(-n2sc3ncccc3c2=O)cc1 | 23.8 µM (inactive) | 13.4 µM (inactive) | 4.74 µM (inactive) | 17.3 µM (inactive) | 14.4 µM (inactive) | 3.96 µM (inactive) | 12.2 µM (inactive) | 11 µM (inactive) | 10.2 µM (inactive) | 11.3 µM (inactive) | 15.7 µM (inactive) | 4.72 µM (inactive) | 16.4 µM (inactive) | 13.9 µM (inactive) | 19.1 µM (inactive) | 5.66 µM (inactive) | 8.02 µM (inactive) | 5.35 µM (inactive) | 22.4 µM (inactive) | – |
| CC(C)c1cc(C(C)C)c(B(c2ccccc2)c2ccccc2)c(C(C)C)c1Br | > 100 µM (inactive) | > 100 µM (inactive) | > 100 µM (inactive) | > 100 µM (inactive) | > 100 µM (inactive) | > 100 µM (inactive) | > 100 µM (inactive) | > 100 µM (inactive) | > 100 µM (inactive) | > 100 µM (inactive) | > 100 µM (inactive) | > 100 µM (inactive) | > 100 µM (inactive) | > 100 µM (inactive) | > 100 µM (inactive) | > 100 µM (inactive) | – | > 100 µM (inactive) | – | > 100 µM (inactive) |
| NS(=O)(=O)c1nnc(NC(=O)c2cccc([N+](=O)[O-])c2)s1 | > 100 µM (inactive) | > 100 µM (inactive) | > 100 µM (inactive) | > 100 µM (inactive) | > 100 µM (inactive) | > 100 µM (inactive) | > 100 µM (inactive) | > 100 µM (inactive) | > 100 µM (inactive) | > 100 µM (inactive) | > 100 µM (inactive) | > 100 µM (inactive) | > 100 µM (inactive) | > 100 µM (inactive) | > 100 µM (inactive) | > 100 µM (inactive) | > 100 µM (inactive) | > 100 µM (inactive) | – | > 100 µM (inactive) |
| Clc1ccccc1/C=C/c1nsc(/C=C/c2ccccc2Cl)n1 | 32 µM (inactive) | 88.9 µM (inactive) | 33.5 µM (inactive) | 47.4 µM (inactive) | 30.8 µM (inactive) | 53.7 µM (inactive) | > 100 µM (inactive) | 36.6 µM (inactive) | 40.1 µM (inactive) | 36.1 µM (inactive) | > 100 µM (inactive) | 22.1 µM (inactive) | 23.6 µM (inactive) | 35 µM (inactive) | 92 µM (inactive) | 37.2 µM (inactive) | 31.3 µM (inactive) | – | 71.4 µM (inactive) | > 100 µM (inactive) |
| CCOC(=O)C1C(O)CC2c3ccccc3-c3ccccc3C21 (stereo not drawn) | 49.5 µM (inactive) | 36.1 µM (inactive) | > 100 µM (inactive) | > 100 µM (inactive) | 55.2 µM (inactive) | > 100 µM (inactive) | > 100 µM (inactive) | 31.2 µM (inactive) | > 100 µM (inactive) | 50.5 µM (inactive) | 21.3 µM (inactive) | > 100 µM (inactive) | > 100 µM (inactive) | 69 µM (inactive) | > 100 µM (inactive) | > 100 µM (inactive) | > 100 µM (inactive) | – | 27.1 µM (inactive) | 29.3 µM (inactive) |
| CC(C)(CCC(C)(C)N1OC1c1ccccc1)N1OC1c1ccccc1 (stereo not drawn) | 28.7 µM (inactive) | 57.1 µM (inactive) | – | 47.2 µM (inactive) | 22.8 µM (inactive) | > 100 µM (inactive) | 21.5 µM (inactive) | – | – | 17.5 µM (inactive) | 36.2 µM (inactive) | 14.1 µM (inactive) | > 100 µM (inactive) | 39.9 µM (inactive) | 38.3 µM (inactive) | 26.4 µM (inactive) | 28.9 µM (inactive) | 31.9 µM (inactive) | > 100 µM (inactive) | – |
| O=C1C2CC=CCC2C(=O)N1n1c(Cc2ccccc2)n[nH]c1=O (stereo not drawn) | > 100 µM (inactive) | > 100 µM (inactive) | > 100 µM (inactive) | > 100 µM (inactive) | > 100 µM (inactive) | > 100 µM (inactive) | > 100 µM (inactive) | > 100 µM (inactive) | > 100 µM (inactive) | > 100 µM (inactive) | > 100 µM (inactive) | > 100 µM (inactive) | > 100 µM (inactive) | > 100 µM (inactive) | > 100 µM (inactive) | > 100 µM (inactive) | > 100 µM (inactive) | > 100 µM (inactive) | – | > 100 µM (inactive) |
